Data published in patent publication USRE50050E1, “Pyrimidinedione compounds” (MyoKardia, Inc., priority 2013, dated 2024).
Where two headings read alike, the source gives them in different places.

What was measured:
[1] = test system: adult rat ventricular myocytes; experiment: Cardiomyocyte contractility assay (fractional shortening, IonOptix); format: cell-based; conditions: Ventricular myocyte, 5 min, 5 minutes of compound; for inhibition at 1 µM: 1.0 uM compound
Protocol: Contractility of adult rat ventricular myocytes is determined by edge detection with an IonOptix contractility system. Aliquots of myocytes in Tyrode buffer (137 mM NaCl, 3.7 mM KCL, 0.5 mM MgCl2, 1.5 mM CaCl2, 4 mM HEPES, 11 mM glucose) are placed in a perfusion chamber (Series 20 RC-27NE; Warner Instruments), allowed to adhere to the coverslip, and then perfused with 37° C. Tyrode buffer. Myocytes are filed stimulated at 1 Hz and 10V. Only myocytes with clear striations, quiescent prior to pacing, with a cell length of 120-180 microns, a basal fractional shortening equal to 3-8% of the cell length, and a contraction velocity greater than 100 microns per second are used for contractility experiments. To determine the response to compounds, myocytes are first perfused for 60 seconds with Tyrodes buffer followed by 5 minutes of compound and a 140 second washout with Tyrodes buffer. Data is continuously recorded using IonOptix software. Contractility data is analyzed using Ionwizard software (IonOptix). For each cell, 10-20 contractility transients were averaged and compared under basal (no compound) and compound-treated conditions. Compound activity is measured by effects on fractional shortening (FS), where fractional shortening is the ratio of the peak length of the cell at contraction divided by the basal cell length normalized to 100% for an untreated cell.

[2] = test system: cardiac contractility in rat; experiment: Acute pharmacodynamic effect in rat (echocardiographic fractional shortening); format: in vivo; conditions: male Sprague-Dawley rats, single dose 4 mg/kg by oral gavage, percent reduction of baseline
Protocol: Representative compounds were tested for their ability to modulate cardiac contractility in rat as a measure of in vivo target engagement. Fractional shortening, a measure of contractility, was determined by noting the change in the diameter of the left ventricle at the end of systole/contraction (LVESd) relative to diastole/relaxation (LVEDd) and expressing this change as the ratio FS=(LVEDd−LVESd)/LVEDd. Fed male Sprague-Dawley rats were lightly anesthetized with isofluorane and baseline fractional shortening was measured in the parasternal position using transthoracic echocardiography (TTE). Following this measurement, animals were recovered and received a single dose of compound (4 mg/kg) by oral gavage. At three hours post-dose, second and third echocardiograms were collected under light anesthesia to determine drug effects on contractility. Effects are represented in Table 5 as a percent reduction of baseline fractional shortening.

[3] = biological target: T1, bovine cardiac myosin (Bos taurus, UniProt Q9BE39); experiment: Myosin inhibition assay (PK/LDH-coupled ATPase, bovine cardiac myofibrils); format: biochemical; conditions: bovine cardiac myofibrils
T1 construct: The source of cardiac myosin was from bovine heart in the form of skinned myofibrils; from tissue; host or cells: bovine heart, skinned myofibrils
T1 sequence (Q9BE39 whole entry): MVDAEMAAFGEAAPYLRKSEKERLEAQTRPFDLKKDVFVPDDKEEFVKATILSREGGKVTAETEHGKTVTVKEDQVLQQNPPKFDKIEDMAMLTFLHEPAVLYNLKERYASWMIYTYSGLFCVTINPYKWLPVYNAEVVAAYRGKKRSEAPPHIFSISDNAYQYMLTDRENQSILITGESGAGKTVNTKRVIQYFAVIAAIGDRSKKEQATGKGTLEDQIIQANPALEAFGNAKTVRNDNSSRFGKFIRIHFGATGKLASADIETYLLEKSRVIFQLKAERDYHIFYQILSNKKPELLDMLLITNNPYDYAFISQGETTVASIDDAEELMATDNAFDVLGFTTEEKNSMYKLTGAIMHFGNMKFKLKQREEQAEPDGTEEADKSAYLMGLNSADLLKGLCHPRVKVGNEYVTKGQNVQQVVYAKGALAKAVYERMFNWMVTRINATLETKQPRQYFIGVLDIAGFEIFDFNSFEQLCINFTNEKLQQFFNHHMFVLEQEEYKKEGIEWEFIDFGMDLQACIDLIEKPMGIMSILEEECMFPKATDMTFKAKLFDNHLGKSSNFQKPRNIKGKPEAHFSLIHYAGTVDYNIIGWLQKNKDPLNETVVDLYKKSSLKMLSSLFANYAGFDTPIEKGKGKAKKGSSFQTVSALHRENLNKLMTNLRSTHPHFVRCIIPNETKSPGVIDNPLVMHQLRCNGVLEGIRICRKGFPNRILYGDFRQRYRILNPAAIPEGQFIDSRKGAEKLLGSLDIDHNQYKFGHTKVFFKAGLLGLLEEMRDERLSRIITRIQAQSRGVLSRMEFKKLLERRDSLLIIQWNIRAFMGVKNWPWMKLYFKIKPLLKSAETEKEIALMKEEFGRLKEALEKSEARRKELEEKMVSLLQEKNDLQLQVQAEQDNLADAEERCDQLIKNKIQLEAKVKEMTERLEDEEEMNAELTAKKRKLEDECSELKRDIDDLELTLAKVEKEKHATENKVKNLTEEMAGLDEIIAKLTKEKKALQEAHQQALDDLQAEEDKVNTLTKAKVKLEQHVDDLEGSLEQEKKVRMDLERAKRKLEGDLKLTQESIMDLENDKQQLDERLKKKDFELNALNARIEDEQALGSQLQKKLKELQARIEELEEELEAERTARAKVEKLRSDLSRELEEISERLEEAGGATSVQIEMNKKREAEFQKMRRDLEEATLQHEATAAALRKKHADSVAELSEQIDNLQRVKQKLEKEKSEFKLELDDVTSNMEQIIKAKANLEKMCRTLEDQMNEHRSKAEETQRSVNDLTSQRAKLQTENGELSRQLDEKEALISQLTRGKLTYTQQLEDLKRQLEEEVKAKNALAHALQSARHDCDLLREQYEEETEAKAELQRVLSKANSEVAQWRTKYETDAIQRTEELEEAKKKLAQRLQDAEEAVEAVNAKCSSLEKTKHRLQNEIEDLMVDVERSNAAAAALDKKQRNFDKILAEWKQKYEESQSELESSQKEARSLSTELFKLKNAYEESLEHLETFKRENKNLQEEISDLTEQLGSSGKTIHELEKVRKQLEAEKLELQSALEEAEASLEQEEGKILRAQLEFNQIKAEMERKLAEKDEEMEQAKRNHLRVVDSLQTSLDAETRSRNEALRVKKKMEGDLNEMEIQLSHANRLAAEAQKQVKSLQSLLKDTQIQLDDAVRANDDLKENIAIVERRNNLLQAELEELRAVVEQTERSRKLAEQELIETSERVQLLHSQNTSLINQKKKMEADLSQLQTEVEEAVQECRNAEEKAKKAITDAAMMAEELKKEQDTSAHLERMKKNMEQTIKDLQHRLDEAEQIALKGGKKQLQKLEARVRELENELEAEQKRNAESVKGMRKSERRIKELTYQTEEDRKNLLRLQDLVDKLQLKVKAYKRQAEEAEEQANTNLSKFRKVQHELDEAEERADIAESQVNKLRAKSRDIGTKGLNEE
T1 sequence (P85100 whole entry partner): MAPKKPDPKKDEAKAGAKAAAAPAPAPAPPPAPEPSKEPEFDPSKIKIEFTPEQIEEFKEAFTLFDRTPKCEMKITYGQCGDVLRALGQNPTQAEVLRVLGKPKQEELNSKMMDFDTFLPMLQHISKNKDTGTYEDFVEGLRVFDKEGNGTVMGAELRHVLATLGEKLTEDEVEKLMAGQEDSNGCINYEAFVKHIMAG
T1 sequence (Q3SZE5 whole entry partner): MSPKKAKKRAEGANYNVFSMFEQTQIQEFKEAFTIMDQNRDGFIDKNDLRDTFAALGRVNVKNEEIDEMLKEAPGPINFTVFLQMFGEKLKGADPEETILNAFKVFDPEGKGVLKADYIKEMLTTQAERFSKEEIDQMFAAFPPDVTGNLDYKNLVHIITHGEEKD

[4] = calcium giving 50% activation (pCa50), read-out: Biochemical Activity (pCa50)
[5] = calcium giving 75% activation (pCa75), read-out: Biochemical Activity (pCa75)

IC50 [3, 4] | IC50 [3, 5] | Compound | inhibition at 0.3 µM ([1]; 0.3 uM compound) | inhibition at 1 µM [1] | % Reduction in Fractional Shortening 3 h post-dose [2]
 |  | CC(C)n1c(=O)cc(N[C@@H](C)c2ccccc2)[nH]c1=O [Compound 1, (S)-3-Isopropyl-6-((1-phenylethyl)amino) pyrimidine-2,4(1H,3H)-dione] | 33 to 66% | > 66% | +++ (+++ presents a relative change in fractional shortening greater than 30%)
< 1000 nM | < 1000 nM | C[C@H](Nc1cc(=O)n(-c2ccccc2)c(=O)[nH]1)c1ccccc1 [Compound 45] |  |  | + (+ represents a relative change in fractional shortening less than 15%)
1000 to 15000 nM | 1000 to 15000 nM | CCCn1c(=O)cc(N[C@@H](C)c2ccccc2)[nH]c1=O [Compound 48, (S)-6-((1-phenylethyl)amino)-3-propylpyrimidine-2,4(1H,3H)-dione] |  |  | +++ (+++ presents a relative change in fractional shortening greater than 30%)
< 1000 nM | < 1000 nM | C[C@H](Nc1cc(=O)n(-c2cc(F)cc(F)c2)c(=O)[nH]1)c1ccccc1 [Compound 49, (S)-3-(3,5-difluorophenyl)-6-((1-phenylethyl)amino)pyrimidine-2,4(1H,3H)-dione] |  |  | +++ (+++ presents a relative change in fractional shortening greater than 30%)
< 1000 nM |  | C[C@H](Nc1cc(=O)n(CC(F)(F)F)c(=O)[nH]1)c1ccc2c(c1)OCO2 [Compound 67, (S)-6-((1-(benzo[d][1,3]dioxol-5-yl)ethyl)amino)-3-(2,2,2-trifluoroethyl)pyrimidine-2,4(1H,3H)-dione] |  | > 66% | 
< 1000 nM | 1000 to 15000 nM | C[C@H](Nc1cc(=O)n(C2CCC2)c(=O)[nH]1)c1ccccc1 [Compound 69, (S)-3-cyclobutyl-6-((1-phenylethyl)amino)pyrimidine-2,4(1H,3H)-dione] |  |  | + (+ represents a relative change in fractional shortening less than 15%)
 | 1000 to 15000 nM | CC(C)n1c(=O)cc(N[C@@H](C)c2ccccc2C(F)(F)F)[nH]c1=O [Compound 70, (S)-3-isopropyl-6-((1-(2-(trifluoromethyl)phenyl)ethyl)amino) pyrimidine-2,4(1H,3H)-dione] |  |  | ++ (++ represents a relative change in fractional shortening between 15-30%)
< 1000 nM |  | C[C@H](Nc1cc(=O)n(C2(C)CC2)c(=O)[nH]1)c1ccccc1 [Compound 71, (S)-3-(1-methylcyclopropyl)-6-((1-phenylethyl)amino)pyrimidine-2,4(1H,3H)-dione] |  |  | +++ (+++ presents a relative change in fractional shortening greater than 30%)
